Laboratory results from patent publication US20240197666A1, “DITERPENOID COMPOUNDS THAT ACT ON PROTEIN KINASE C (PKC)” (K-Gen Therapeutics, Inc., priority 2021, published 2024).
pKi: −log10 of the molar value.

Tests used:
MC38 tumors = assay: MC38 syngeneic model, efficacy and re-challenge; assay type: in vivo, mouse; settings: for Live Animal at Day 50: N 8
Experimental: 8 weeks old female C57B/J6J mice were implanted subcutaneously at the right flank with 3×10^5 MC38 mouse colon cancer cells. Mice were randomized into different treatment groups (see above) when tumors grew to an average mean tumor size of 50-80 mm^3. Tumor size was measured three times weekly in two dimensions using a caliper, and the volume was expressed in mm^3 using the formula: V=0.5a×b^2 where a and b are the long and short diameters of the tumor, respectively. Mice were monitored daily for clinical signs and body weights were measured twice per week. All groups tolerated drug treatments very well with less than 10% body weight loss. […] Scabs formed near the site of IT injection and the skin recovered with minimal scaring within 3-4 weeks.
For the efficacy portion of the study, the major endpoint was the animal survival, defined as time to death or euthanasia when tumors ≥2000 mm^3. The survive rate is the proportion of live animals in each group on a given day. A Kaplan-Meier analysis was performed to compare animal survival between vehicle and treated groups. P<0.05 was considered to be statistically significant. Another endpoint is tumor clearance, for which the mice were monitor for over 50 days after the start of the treatment.
To test if anti-tumor immunity was developed in the cured mice, the re-challenge portion of the study was conducted. The major endpoint was the tumor initiation of the re-implanted tumor cells. Tumor fee survive rate is the proportion of tumor fee mice and the mice whose tumor volumes were below 50 mm^3 in each group on a given day. A Mann-Whitney method was performed to analyze the tumor initiation rate at the end of the re-challenge study and P<0.05 was considered to be statistically significant.
MC38 cells (3×10^5) were re-implanted subcutaneously to the other flank (left flank) of the 8 tumor-eradicated mice (two from group 2, three each from groups 3 and 5). No MC38 tumors formed after 36 days in these 8 tumor-eradicated mice. To study the anti-tumor immunity further in the 8 tumor-eradicated mice, MC38 cells (3×10^5) and unrelated 3LL cells (lung cancer) (2×10^6) were re-implanted and implanted at opposite flanks in these mice. As control, five age-matched naïve mice were implanted with 3LL and MC38 tumor cells at opposite flanks. The re-challenge for control and K1K1-C1348101 groups were performed independently, but with same method and condition.

C1b domain of human PKCθ = biological target: T1, C1b domain of human PKCθ (Homo sapiens, UniProt Q04759); assay: biochemical; assay type: binding; settings: 3H-PDBu competition
T1 construct: Genes encoding C1b domains of human PKCα, δ, ε, θ, and PKD1 (PKCμ) were synthesized; made in house; host or cells: E. coli BL21(DE3)
T1 sequence (Q04759 231-281 limits assumed): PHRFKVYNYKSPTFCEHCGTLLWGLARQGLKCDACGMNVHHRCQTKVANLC
Procedure, shortened: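 Ki derived by Cheng-Prusoff from IC50, with each protein batch's measured ^3H-PDBu Kd. Displacement of ^3H-PDBu from E. coli-produced GST-fused C1b domains or full-length human PKC was run 10 min at 37°C plus 20 min on ice, with filter capture and scintillation counting.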

[1] = re-challenge of 8 tumor-eradicated mice with 3LL cells
[2] = re-challenge of 8 tumor-eradicated mice with MC38 cells

## CC1=C[C@H]2[C@@]3(O)[C@H](C)C[C@]4(OC(=O)[C@H](N)CCCCCCc5ccccc5)[C@H]([C@@H]3C=C(CO)C[C@]2(O)C1=O)C4(C)C
MC38 tumors; group 2 (5 mg/ml), 2 out of 8 tumors
  complete eradication of tumors: 25%
MC38 tumors; group 2: 5 mg/ml, 20 μl it
  % Increased Survival Time: 45%
  Increased Survival Time: 9 days
  Median: 29 days
MC38 tumors; group 2: 5 mg/ml, 20 μl it, D 0,1,2,7,8,9
  Live Animal at Day 50: 2
MC38 tumors; group 3 (20 mg/ml), 3 out of 8 tumors
  complete eradication of tumors: 37.5%
MC38 tumors; group 3: 20 mg/ml, 20 μl
  % Increased Survival Time: 23%
  Increased Survival Time: 4.5 days
  Median: 24.5 days
MC38 tumors; group 3: 20 mg/ml, 20 μl, D 0,1,2
  Live Animal at Day 50: 3
MC38 tumors; [1]
  Tumor initiation (mice): 8
  Tumor-free (mice): 0
MC38 tumors; [2]
  Tumor initiation (mice): 0
  Tumor-free (mice): 8
C1b domain of human PKCθ
  pKi: 7.52 to 8.00
